According to PubChem BioAssay AID328 (DTP/NCI, 2004):
“And” between values parts separate entries of the source, which are not always exact repeats. Equal entries are not always repeated. Inconclusive results and toxic doses are left out.

Test system: BDF1 mice, P388 leukemia ip, median survival T/C
Assay: NCI In Vivo Anticancer Drug Screen. Data for tumor model P388 Leukemia (intraperitoneal) in B6D2F1 (BDF1) mice
Conditions: endpoint: median survival time, higher = longer survival
In short: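 Vehicle-dosed animals serve as the reference; survival of compound-dosed, tumour-implanted mice is divided by it.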

[1] = dose: 400.0 mg/kg/injection, schedule: Q01DX009 (ip), vehicle: saline with Tween-80
[2] = dose: 25.0 mg/kg/injection, schedule: Q04DX003 (ip), vehicle: Klucel (hydroxypropylcellulose) (HPC)
[3] = dose: 50.0 mg/kg/injection, schedule: Q04DX003 (ip), vehicle: Klucel (hydroxypropylcellulose) (HPC)
[4] = dose: 100.0 mg/kg/injection, schedule: Q04DX003 (ip), vehicle: Klucel (hydroxypropylcellulose) (HPC)
[5] = dose: 200.0 mg/kg/injection, schedule: Q04DX003 (ip), vehicle: Klucel (hydroxypropylcellulose) (HPC)
[6] = dose: 33.0 mg/kg/injection, schedule: Q04DX003 (ip), vehicle: saline
[7] = dose: 50.0 mg/kg/injection, schedule: Q04DX003 (ip), vehicle: saline
[8] = dose: 75.0 mg/kg/injection, schedule: Q04DX003 (ip), vehicle: saline
[9] = dose: 50.0 mg/kg/injection, schedule: Q01DX009 (ip), vehicle: other
[10] = dose: 100.0 mg/kg/injection, schedule: Q01DX009 (ip), vehicle: other
[11] = dose: 200.0 mg/kg/injection, schedule: Q01DX009 (ip), vehicle: other
[12] = dose: 100.0 mg/kg/injection, schedule: Q01DX009 (ip), vehicle: Klucel (hydroxypropylcellulose) (HPC)
[13] = dose: 200.0 mg/kg/injection, schedule: Q01DX009 (ip), vehicle: Klucel (hydroxypropylcellulose) (HPC)
[14] = dose: 400.0 mg/kg/injection, schedule: Q04DX003 (ip), vehicle: Klucel (hydroxypropylcellulose) (HPC)

For `O=C(Cl)c1ccc(N2C(=O)c3ccccc3C2=O)cc1[N+](=O)[O-]`, the T/C (dose: 50.0 mg/kg/injection, schedule: Q01DX009 (ip), vehicle: saline with Tween-80) was 118 % of control, the T/C (dose: 50.0 mg/kg/injection, schedule: Q04DX003 (ip), vehicle: saline with Tween-80) was 96 % of control and the T/C (dose: 100.0 mg/kg/injection, schedule: Q01DX009 (ip), vehicle: saline with Tween-80) was 121 % of control. The T/C (dose: 100.0 mg/kg/injection, schedule: Q04DX003 (ip), vehicle: saline with Tween-80) was 102 % of control, the T/C (dose: 200.0 mg/kg/injection, schedule: Q01DX009 (ip), vehicle: saline with Tween-80) was 115 % of control and the T/C (dose: 200.0 mg/kg/injection, schedule: Q04DX003 (ip), vehicle: saline with Tween-80) was 100 % of control. For the same compound, the T/C [1] was 101 % of control and the T/C (dose: 400.0 mg/kg/injection, schedule: Q04DX003 (ip), vehicle: saline with Tween-80) was 105 % of control.

In the case of `O=C(N/N=C/c1ccc2c(c1)CCC2)c1ccccc1`, the T/C [2] is reported as 100 % of control, the T/C [3] is reported as 96 % of control and the T/C [4] is reported as 94 % of control. The T/C [5] was 100 % of control.

For `CCN(CC)P(=O)(N1CC1C)N1CC1C` (configuration not stated), the T/C (dose: 4.4 mg/kg/injection, schedule: Q01DX009 (ip), vehicle: saline) was 109 % of control, the T/C (dose: 6.6 mg/kg/injection, schedule: Q01DX009 (ip), vehicle: saline) was 109 % of control and the T/C (dose: 10.0 mg/kg/injection, schedule: Q01DX009 (ip), vehicle: saline) was 104 % of control. For the same compound, the T/C (dose: 12.5 mg/kg/injection, schedule: Q04DX003 (ip), vehicle: saline) was 116 % of control, the T/C (dose: 13.2 mg/kg/injection, schedule: Q01DX009 (ip), vehicle: saline) was 118 % of control and the T/C (dose: 15.0 mg/kg/injection, schedule: Q01DX009 (ip), vehicle: saline) was 113 % of control. The T/C (dose: 20.0 mg/kg/injection, schedule: Q01DX009 (ip), vehicle: saline) was 157 % of control and 180 % of control, the T/C (dose: 25.0 mg/kg/injection, schedule: Q04DX003 (ip), vehicle: saline) was 100 % of control and the T/C (dose: 30.0 mg/kg/injection, schedule: Q01DX009 (ip), vehicle: saline) was 150 % of control. The T/C [6] was 121 % of control, the T/C (dose: 45.0 mg/kg/injection, schedule: Q01DX009 (ip), vehicle: saline) was 90 % of control and the T/C [7] was 113 % of control. For the same compound, the T/C [8] was 169 % of control.

`FC(F)(F)c1nc[nH]c1C(F)(F)F` was tested, and the T/C (dose: 3.12 mg/kg/injection, schedule: Q01DX009 (ip), vehicle: water) was 99 % of control, the T/C (dose: 6.25 mg/kg/injection, schedule: Q01DX009 (ip), vehicle: water) was 90 % of control and the T/C (dose: 12.5 mg/kg/injection, schedule: Q01DX009 (ip), vehicle: water) was 91 % of control. The T/C (dose: 25.0 mg/kg/injection, schedule: Q01DX009 (ip), vehicle: water) was 99 % of control, the T/C (dose: 50.0 mg/kg/injection, schedule: Q01DX009 (ip), vehicle: water) was 89 % of control and the T/C (dose: 50.0 mg/kg/injection, schedule: Q04DX003 (ip), vehicle: water) was 98 % of control. For the same compound, the T/C (dose: 100.0 mg/kg/injection, schedule: Q04DX003 (ip), vehicle: water) was 104 % of control.

In the case of `O=C(COc1cc(Cl)c(Cl)cc1Cl)OCCN(CCOC(=O)COc1cc(Cl)c(Cl)cc1Cl)C(=O)COc1ccc(Cl)cc1`, the T/C (dose: 100.0 mg/kg/injection, schedule: Q04DX003 (ip), vehicle: other) is reported as 100 % of control, the T/C (dose: 200.0 mg/kg/injection, schedule: Q04DX003 (ip), vehicle: other) is reported as 86 % of control and the T/C (dose: 400.0 mg/kg/injection, schedule: Q04DX003 (ip), vehicle: other) is reported as 100 % of control.

In the case of `O=[N+]([O-])c1ccc2nccc(Cl)c2c1`, the T/C [2] is reported as 100 % of control and the T/C [3] is reported as 95 % of control.

`CC(C)[C@]12O[C@H]1[C@@H]1O[C@]13[C@]1(O[C@H]1C[C@H]1C4=C(CC[C@@]13C)C(=O)OC4)[C@@H]2O` was tested, and the T/C (dose: 26.0 micrograms/kg/injection, schedule: Q01DX009 (ip), vehicle: saline) was 118 % of control, the T/C (dose: 40.0 micrograms/kg/injection, schedule: Q01DX009 (ip), vehicle: saline) was 118 % of control and the T/C (dose: 60.0 micrograms/kg/injection, schedule: Q01DX009 (ip), vehicle: saline) was 100 % of control. For the same compound, the T/C (dose: 89.0 micrograms/kg/injection, schedule: Q01DX009 (ip), vehicle: saline) was 109 % of control and the T/C (dose: 133.0 micrograms/kg/injection, schedule: Q01DX009 (ip), vehicle: saline) was 100 % of control.

With `CNC(=S)N/N=C/c1ccc([N+](=O)[O-])s1` the T/C [1] was 94 % of control.

In the case of `O=c1cc(-c2cccnc2)oc2c1ccc1ccccc12`, the T/C (dose: 12.5 mg/kg/injection, schedule: Q01DX009 (ip), vehicle: other) is reported as 89 % of control, the T/C (dose: 25.0 mg/kg/injection, schedule: Q01DX009 (ip), vehicle: other) is reported as 91 % of control and the T/C [9] is reported as 95 % of control. The T/C [10] was 91 % of control and the T/C [11] was 87 % of control.

For `CCOC(=S)SCC(=O)Nc1ccc(Br)cc1`, the T/C (dose: 15.0 mg/kg/injection, schedule: Q01DX009 (ip), vehicle: saline with Tween-80) was 93 % of control, the T/C (dose: 30.0 mg/kg/injection, schedule: Q01DX009 (ip), vehicle: saline with Tween-80) was 96 % of control and the T/C (dose: 60.0 mg/kg/injection, schedule: Q01DX009 (ip), vehicle: saline with Tween-80) was 98 % of control.

`O=C(/C=C/c1ccc2c(c1)OCO2)c1ccccc1` was tested, and the T/C (dose: 50.0 mg/kg/injection, schedule: Q01DX009 (ip), vehicle: Klucel (hydroxypropylcellulose) (HPC)) was 114 % of control and 105 % of control, the T/C [12] was 112 % of control and 100 % of control and the T/C [4] was 104 % of control. The T/C [13] was 112 % of control, the T/C [5] was 100 % of control and the T/C [14] was 95 % of control.

In the case of `COc1ccc2c(c1)CCC(=O)O2`, the T/C (dose: 100.0 mg/kg/injection, schedule: Q04DX003 (ip), vehicle: saline sonified) is reported as 91 % of control, the T/C (dose: 200.0 mg/kg/injection, schedule: Q04DX003 (ip), vehicle: saline sonified) is reported as 95 % of control and the T/C (dose: 400.0 mg/kg/injection, schedule: Q04DX003 (ip), vehicle: saline sonified) is reported as 100 % of control.

In the case of `CC1CN1CCS(=O)(=O)CCN1CC1C` (configuration not stated), the T/C (dose: 22.0 mg/kg/injection, schedule: Q04DX003 (ip), vehicle: saline) is reported as 105 % of control, the T/C [6] is reported as 100 % of control and the T/C [7] is reported as 111 % of control. For the same compound, the T/C [8] was 122 % of control, the T/C (dose: 150.0 mg/kg/injection, schedule: Q01DX009 (ip), vehicle: other) was 163 % of control and the T/C (dose: 225.0 mg/kg/injection, schedule: Q01DX009 (ip), vehicle: other) was 209 % of control.

In the case of `Nc1nc(N)c(-c2ccc(Cl)c(Cl)c2)c(COc2cccc(CNC(=O)c3cccc(S(=O)(=O)F)c3)c2)n1`, the T/C (dose: 132.0 mg/kg/injection, schedule: Q04DX003 (ip), vehicle: Klucel (hydroxypropylcellulose) (HPC)) is reported as 109 % of control, the T/C [13] is reported as 150 % of control and the T/C [5] is reported as 119 % of control. For the same compound, the T/C (dose: 300.0 mg/kg/injection, schedule: Q01DX009 (ip), vehicle: Klucel (hydroxypropylcellulose) (HPC)) was 155 % of control.

`CC(C(=O)O)c1ccccc1` (configuration not stated) was tested, and the T/C [9] was 101 % of control, the T/C [10] was 106 % of control and the T/C [11] was 110 % of control.

`CCOC(=O)c1cc(C(=O)OCC)c(C#N)c(=O)[nH]1` was tested, and the T/C [12] was 96 % of control, the T/C [4] was 91 % of control and the T/C [5] was 91 % of control. The T/C (dose: 400.0 mg/kg/injection, schedule: Q01DX009 (ip), vehicle: Klucel (hydroxypropylcellulose) (HPC)) was 92 % of control and the T/C [14] was 100 % of control.

For `COc1cccc2c1C(=N)c1c(O)c3c(c(O)c1C2=O)C[C@@](O)(C(C)=O)C[C@@H]3OC1CC(N)C(O)C(C)O1` (some centres not stated), the T/C (dose: 3.46 mg/kg/injection, schedule: Q04DX003 (ip), vehicle: saline) was 177 % of control, the T/C (dose: 5.76 mg/kg/injection, schedule: Q04DX003 (ip), vehicle: saline) was 186 % of control and the T/C (dose: 9.6 mg/kg/injection, schedule: Q04DX003 (ip), vehicle: saline) was 180 % of control.

For `CC1(C)C2CC=C(C[P+](c3ccccc3)(c3ccccc3)c3ccccc3)C1C2` (configuration not stated), the T/C (dose: 3.3 mg/kg/injection, schedule: Q01DX009 (ip), vehicle: saline sonified) was 120 % of control.
